{
  "source": "paper PMC12179037",
  "about": "“Degradation of beechwood xylan using food-grade bacteria-like particles displaying β-xylosidase from Limosilactobacillus fermentum” (Bioresources and Bioprocessing, 2025)",
  "biological_target": "T1, Xyl-L-CshA (LfXyl43 β-xylosidase with C-terminal CshA anchor) (Limosilactobacillus fermentum, UniProt Z9FCD9CVP2)",
  "T1 construct": "LfXyl43 fused through (GGGGS)3 linker to C-terminal surface anchor CshA of Lactiplantibacillus plantarum SK156; 6xHis tag; pET21b(+), E. coli BL21(DE3)",
  "T1 sequence (Z9FCD9CVP2 1-551)": "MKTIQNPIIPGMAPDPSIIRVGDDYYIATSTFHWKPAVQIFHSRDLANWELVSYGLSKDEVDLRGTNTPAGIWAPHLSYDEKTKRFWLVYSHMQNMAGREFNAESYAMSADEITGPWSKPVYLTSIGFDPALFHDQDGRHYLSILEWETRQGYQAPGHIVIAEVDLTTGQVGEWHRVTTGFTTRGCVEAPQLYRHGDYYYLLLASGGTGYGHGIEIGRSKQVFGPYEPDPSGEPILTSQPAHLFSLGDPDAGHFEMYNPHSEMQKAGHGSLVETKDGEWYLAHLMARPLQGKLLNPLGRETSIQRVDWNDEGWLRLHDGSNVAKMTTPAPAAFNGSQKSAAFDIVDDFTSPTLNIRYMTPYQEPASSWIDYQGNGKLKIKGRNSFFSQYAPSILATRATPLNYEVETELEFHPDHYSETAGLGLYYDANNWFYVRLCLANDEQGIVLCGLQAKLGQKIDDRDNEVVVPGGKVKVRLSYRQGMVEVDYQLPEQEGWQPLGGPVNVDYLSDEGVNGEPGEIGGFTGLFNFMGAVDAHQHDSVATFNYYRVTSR",
  "test": "reducing sugar release (DNSA, […] nm); TLC",
  "type": "biochemical",
  "settings": "purified fusion protein immobilised on bacteria-like particles; 2 mM substrate; 50 mM sodium phosphate pH 7.0; 35 °C; 5 min",
  "data": [
    {"smiles": "OC1OC[C@@H](O[C@@H]2OC[C@@H](O)[C@H](O)[C@H]2O)[C@H](O)[C@H]1O", "note": "(stereo partly shown) [xylobiose]", "values": [
      {"measurement": "reducing sugar release (DNSA, 540 nm); TLC", "result": "CshA-L-Xyl and Xyl-L-CshA (i.e., with linker peptide) had higher catalytic activity towards all XOS substrates"}
    ]}
  ]
}
